We go through four compounds from ChEMBL document CHEMBL5034036, “Aryloxy Pivaloyloxymethyl Prodrugs as Nucleoside Monophosphate Prodrugs” (J Med Chem, 2021).

In data set [1] the test system is MCF7. The experiment in a line: Cytotoxicity against human MCF7 cells assessed as inhibition of cell proliferation measured after 48 hrs by MTT assay. It counts as functional, cell-based. The following applies: MCF7, 48 h.
For data set [2], the system named is A549. The experiment in a line: Cytotoxicity against human A549 cells after 48 hrs measured by MTT assay. The format is functional, cell-based. To be noted: A549, 48 h. (Tetrazolium dyes change colour on reduction, which living cells bring about.)
Data set [3] relates to MCF7. The experiment in a line: Cytotoxicity against human MCF7 cells assessed as inhibition of cell proliferation measured after 24 hrs by MTT assay. To be noted: MCF7, 24 h. It counts as functional, cell-based.
The test system of data set [4] is A549. The experiment in a line: Cytotoxicity against human A549 cells after 24 hrs measured by MTT assay. The format is functional, cell-based. To be noted: A549, 24 h.
Data set [5] can be described thus: Drug metabolism in human serum assessed as metabolite B formation by 31P-NMR analysis. It counts as ADME, cell-free.
For the next data set, the target named is T1, Liver carboxylesterase (Sus scrofa, UniProt Q29550).
T1 sequence (Q29550 whole entry): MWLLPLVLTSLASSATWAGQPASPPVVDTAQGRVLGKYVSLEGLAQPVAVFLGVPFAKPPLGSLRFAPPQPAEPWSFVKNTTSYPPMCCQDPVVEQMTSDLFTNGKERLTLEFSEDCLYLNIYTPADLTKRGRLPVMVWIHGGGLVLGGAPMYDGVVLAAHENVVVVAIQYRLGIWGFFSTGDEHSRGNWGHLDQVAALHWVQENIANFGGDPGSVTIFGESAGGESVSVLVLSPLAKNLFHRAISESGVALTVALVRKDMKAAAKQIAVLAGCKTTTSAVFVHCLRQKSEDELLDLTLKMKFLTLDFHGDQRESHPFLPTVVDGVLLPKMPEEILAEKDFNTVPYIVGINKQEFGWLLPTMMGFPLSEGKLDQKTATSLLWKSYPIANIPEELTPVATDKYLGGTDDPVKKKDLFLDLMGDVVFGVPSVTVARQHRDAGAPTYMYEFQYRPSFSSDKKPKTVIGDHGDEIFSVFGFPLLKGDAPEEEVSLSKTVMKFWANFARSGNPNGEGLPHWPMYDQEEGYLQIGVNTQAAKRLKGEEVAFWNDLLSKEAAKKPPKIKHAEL
The experiment in a line: Stability in porcine liver esterase assessed as intact compound measured by NMR analysis. It counts as ADME. To be noted: pig.

Data set [6] is described as follows: Drug metabolism assessed as recombinant carboxypeptidase Y-mediated metabolite formation measured measured by 31P-NMR analysis. It counts as ADME. The following applies: saccharomyces cerevisiae.
Data set [7] can be described thus: Serum stability of the compound in human serum assessed as half life measured by 31P-NMR analysis. It counts as ADME, cell-free.

Molecules are shown by their SMILES. A value given as a limit tells only on which side of the number the result lay.

For orientation: IC50 means the concentration needed to halve the response being measured. Consider `CC(C)(C)C(=O)OCOP(=O)(OC[C@H]1O[C@@H](n2cc(F)c(=O)[nH]c2=O)C[C@@H]1O)Oc1cccc2ccccc12` (stereo partly drawn), for which the IC50 came out at 35.5 µM with MCF7 [1], 34.5 µM in the data set on A549 [2], 28.8 µM in the data set with MCF7 [3] and 52.5 µM with A549 [4].
Broadly, the half-life is the time in which the quantity being followed falls by half. As to `CC(C)(C)C(=O)OCOP(=O)(OC[C@H]1O[C@@H](n2cc(F)c(=O)[nH]c2=O)C[C@@H]1O)Oc1ccccc1` (stereo partly drawn), the Drug metabolism entry in data set [5] is “Metabolite_Detected”; in data set [6], “Metabolite_Notdetected”. The IC50 is 13.1 µM in the data set on MCF7 [1] and 63.6 µM in the data set on MCF7 [3]. For the same compound, on Liver carboxylesterase, the Stability entry is reported as “Stable”. Further, the half-life in data set [7] is at least 12 h.
Turning to `O=c1[nH]c(=O)n([C@H]2C[C@H](O)[C@@H](CO)O2)cc1F` [FLOXURIDINE], the IC50 with MCF7 [1] was 46.9 µM; in the data set on A549 [2], above 100 µM; with MCF7 [3], above 100 µM; in the data set on A549 [4], above 100 µM.
For the compound `COC(=O)[C@H](C)NP(=O)(OC[C@H]1O[C@@H](n2cc(F)c(=O)[nH]c2=O)C[C@@H]1O)Oc1ccccc1` (stereo partly drawn), the IC50 with MCF7 [1] was 84.8 µM; in the data set with A549 [2] it was 36 µM; in the data set with MCF7 [3], above 100 µM; in the data set with A549 [4], 69.5 µM.
